The values below are quoted from earlier work in US20110144207A1, “ARYL ALKYL CARBOXYLIC ACID SALTS, PROCESS FOR PREPARATION AND DOSAGE FORMS” (SHASUN CHEMICALS AND DRUGS LIMITED, priority 2008, published 2011).

Counter-ions that a name gives are not always drawn. Like-named read-outs stand apart in the source and are kept apart here.

For series [1] the following is noted: as described in EP application 1149828.
For series [2] the following is noted: compared with conventional ibuprofen.

On to `O=C(O)Cc1ccccc1Nc1c(Cl)cccc1Cl` [diclofenac sodium salt], for which the hygroscopic property entry in series [1] (sodium salt) is on record as “hygroscopic”. As to `CC(C)Cc1ccc(C(C)C(=O)O)cc1.O.O.[Na]` (stereo not shown) [ibuprofen sodium dihydrate, Ibuprofen Sodium Dihydrate], in series [2], the “Cmax (peak concentration)” value is on record as “significantly higher” and the “tmax (time to peak concentration)” value was “earlier”. As to `O=C(O)Cc1ccccc1Nc1c(Cl)cccc1Cl` [diclofenac sodium salt hemihydrate], in series [1] (sodium salt hemihydrate), the hygroscopic property entry is reported as “no hygroscopic property”.
